{"source": "patent US10702512B2", "about": "“Treatment of debilitating fatigue” (A. CARLSSON RESEARCH AB, priority 2015, dated 2020)", "format_in_all_cases": "in vivo, human", "key": {"ME/CFS patients [1]": {"test_system": "ME/CFS patients", "experiment": "Coding test (WAIS subtest)", "design": "key to Coding test score, min / Coding test score, max / Coding test, Difference, increased mean / Coding test score, mean / Coding test score, median: number of symbols correctly copied within 90 seconds", "procedure": "Next, patients were evaluated using a neuropsychological test. 61 patients were included in a neuropsychological examination. All subjects were tested once in connection with the randomization with the BNIS neuropsychological screening test. 20-30 minutes was required for this test. With the purpose of measuring the cognitive effects of the OSU6162 treatment six more tests were distributed at a first occasion before the initiation of treatment and at a second occasion after the treatment was completed. These tests required 20 minutes each. All tests were performed by a neuropsychologist. The Coding test is a subtest from WAIS, Wechsler Adult Intelligence Scale and measures the processing speed. The performance reflects abilities such as visual-motor coordination, motor and mental speed and working memory. It requires the subject to copy, as quickly and correctly as possible, nine symbols, one by one in 93 boxes, placed below each number. The symbol connected with the numbers is available. The score is the number of symbols registered within 90 seconds."}, "ME/CFS patients [2]": {"test_system": "ME/CFS patients", "experiment": "neuropsychological tests of cognitive functioning, overall", "details": "all neuropsychological tests employed; no significant difference vs placebo"}, "ME/CFS patients [3]": {"test_system": "ME/CFS patients", "experiment": "Stroop tests (Victoria version)", "design": "Stroop 2, mean / Stroop 2, Difference / Stroop 2, median / Stroop 3, mean / Stroop 3, Difference / Stroop 3, median / Stroop 1, mean / Stroop 1, Difference / Stroop 1, median: unit not given here", "procedure": "Next, patients were evaluated using a neuropsychological test. 61 patients were included in a neuropsychological examination. All subjects were tested once in connection with the randomization with the BNIS neuropsychological screening test. 20-30 minutes was required for this test. With the purpose of measuring the cognitive effects of the OSU6162 treatment six more tests were distributed at a first occasion before the initiation of treatment and at a second occasion after the treatment was completed. These tests required 20 minutes each. All tests were performed by a neuropsychologist. The Stroop test (Victoria version) is a time-based test sensitive to frontal lobe dysfunction. It measures executive functioning and is validated and used internationally. Depression and anxiety could influence the results. Speeds of processing and conceptual abilities contribute to the performance. It also reflects the ability of concentration. The test consists of three cards each containing six rows of four items. Stroop I is on the first card. In this subtest the subject must name as quickly as possible the color of 24 dots printed in blue, green, red and yellow. Each color is used six times and the four colors are arranged in pseudo-random order within the array, each color appears once in a row. Stroop 2 is on the second card. In this subtest the dots are replaced by common words printed in lower-case letters. The subject is required to name the colors in which the stimuli are presented and to disregard their verbal content. Stroop 3 is on the third card. In this subtest the colored stimuli are the color names “blue, green, red and yellow” printed in lower case letters so that the print color never corresponds to the color name."}, "ME/CFS patients [4]": {"test_system": "ME/CFS patients", "experiment": "FibroFatigue scale (FF) total score, phase II clinical study", "description": "As used herein, the term “FF-scale” or “FF” refers to the FibroFatigue scale also known as the fibromyalgia and chronic fatigue syndrome rating scale described in by Zachrisson and coworkers (Zachrisson O, et al, (2002) J Psychosom Res Jun; 52(6):501-9). The FibroFatigue scale is an observer's rating scale with 12 items measuring pain, muscular tension, fatigue, concentration difficulties, failing memory, irritability, sadness, sleep disturbances, and autonomic disturbances and irritable bowel, headache and subjective experience of infection. […] Circular coated tablets for oral use of 15 mg and matching placebos was used. The tablets were administered by research nurses at the study site. The tablets were circular coated tablets for oral use containing 15 mg OSU6162. Matching placebos were used. The start dose was 15 mg OSU6162 twice daily (before breakfast and lunch) during 1 week with dose increase up to 30 mg twice daily during the following week. Additionally, the clinical effect was evaluated using the FF-scale, The Beck/BDI scale, VAS pain scale and with neuropsychological tests. To examine the effect of treatment and concomitant use of an antidepressant, antidepressant was included as a fixed factor in the analyses. […] Outcome targets FF, MFS and BDI were measured."}, "ME/CFS patients [5]": {"test_system": "ME/CFS patients", "experiment": "Trail making test B (TMT B)", "procedure": "Next, patients were evaluated using a neuropsychological test. 61 patients were included in a neuropsychological examination. All subjects were tested once in connection with the randomization with the BNIS neuropsychological screening test. 20-30 minutes was required for this test. With the purpose of measuring the cognitive effects of the OSU6162 treatment six more tests were distributed at a first occasion before the initiation of treatment and at a second occasion after the treatment was completed. These tests required 20 minutes each. All tests were performed by a neuropsychologist. […] The subject follows a mental track and the test requires the ability to handle more than one stimulus at a time, as well as flexibility in shifting between different activities. It has a high sensitivity for brain dysfunction and is regarded to be related to prefrontal functioning."}}, "data": [{"smiles": "CCCN1CCC[C@@H](c2cccc(S(C)(=O)=O)c2)C1.Cl", "note": "[OSU6162, (3S)-3-[3-(methylsulfonyl)-phenyl]-1-propylpiperidine hydrochloride]", "values": [{"measurement": "Coding test score, max", "setting": "ME/CFS patients [1]; after treatment", "value": 93}, {"measurement": "Coding test score, mean", "setting": "ME/CFS patients [1]; after treatment", "value": 56.29}, {"measurement": "Coding test score, median", "setting": "ME/CFS patients [1]; after treatment", "value": 56}, {"measurement": "Coding test score, min", "setting": "ME/CFS patients [1]; after treatment", "value": 37}, {"measurement": "Coding test, Difference, increased mean", "setting": "ME/CFS patients [1]; after vs before treatment", "value": 5}, {"measurement": "Coding test difference between OSU6162 and placebo groups", "setting": "ME/CFS patients [1]; before and after treatment", "value": "No significant differences"}, {"measurement": "Coding test score, max", "setting": "ME/CFS patients [1]; before treatment", "value": 80}, {"measurement": "Coding test score, mean", "setting": "ME/CFS patients [1]; before treatment", "value": 51.42}, {"measurement": "Coding test score, median", "setting": "ME/CFS patients [1]; before treatment", "value": 51}, {"measurement": "Coding test score, min", "setting": "ME/CFS patients [1]; before treatment", "value": 31}, {"measurement": "effect of treatment on cognitive abilities", "setting": "ME/CFS patients [2]", "value": "does not affect the cognitive abilities"}, {"measurement": "Stroop 1, max", "setting": "ME/CFS patients [3]; after treatment", "value": 20, "unit": "s"}, {"measurement": "Stroop 1, mean", "setting": "ME/CFS patients [3]; after treatment", "value": 12.77}, {"measurement": "Stroop 1, median", "setting": "ME/CFS patients [3]; after treatment", "value": 12}, {"measurement": "Stroop 1, min", "setting": "ME/CFS patients [3]; after treatment", "value": 8}, {"measurement": "Stroop 2, max", "setting": "ME/CFS patients [3]; after treatment", "value": 29, "unit": "s"}, {"measurement": "Stroop 2, mean", "setting": "ME/CFS patients [3]; after treatment", "value": 16.9}, {"measurement": "Stroop 2, median", "setting": "ME/CFS patients [3]; after treatment", "value": 16}, {"measurement": "Stroop 2, min", "setting": "ME/CFS patients [3]; after treatment", "value": 9}, {"measurement": "Stroop 3, max", "setting": "ME/CFS patients [3]; after treatment", "value": 62, "unit": "s"}, {"measurement": "Stroop 3, mean", "setting": "ME/CFS patients [3]; after treatment", "value": 23.48}, {"measurement": "Stroop 3, median", "setting": "ME/CFS patients [3]; after treatment", "value": 23}, {"measurement": "Stroop 3, min", "setting": "ME/CFS patients [3]; after treatment", "value": 12}, {"measurement": "Stroop tests difference between OSU6162 and placebo groups", "setting": "ME/CFS patients [3]; before and after treatment", "value": "No significant differences"}, {"measurement": "Stroop 1, max", "setting": "ME/CFS patients [3]; before treatment", "value": 22, "unit": "s"}, {"measurement": "Stroop 1, mean", "setting": "ME/CFS patients [3]; before treatment", "value": 13.97}, {"measurement": "Stroop 1, median", "setting": "ME/CFS patients [3]; before treatment", "value": 14}, {"measurement": "Stroop 1, min", "setting": "ME/CFS patients [3]; before treatment", "value": 9}, {"measurement": "Stroop 2, max", "setting": "ME/CFS patients [3]; before treatment", "value": 39, "unit": "s"}, {"measurement": "Stroop 2, mean", "setting": "ME/CFS patients [3]; before treatment", "value": 19.5}, {"measurement": "Stroop 2, median", "setting": "ME/CFS patients [3]; before treatment", "value": 19}, {"measurement": "Stroop 2, min", "setting": "ME/CFS patients [3]; before treatment", "value": 10}, {"measurement": "Stroop 3, max", "setting": "ME/CFS patients [3]; before treatment", "value": 51, "unit": "s"}, {"measurement": "Stroop 3, mean", "setting": "ME/CFS patients [3]; before treatment", "value": 26.8}, {"measurement": "Stroop 3, median", "setting": "ME/CFS patients [3]; before treatment", "value": 24}, {"measurement": "Stroop 3, min", "setting": "ME/CFS patients [3]; before treatment", "value": 14}, {"measurement": "Stroop 1, Difference", "setting": "ME/CFS patients [3]; before vs after treatment", "value": 1.2}, {"measurement": "Stroop 2, Difference", "setting": "ME/CFS patients [3]; before vs after treatment", "value": 3.2}, {"measurement": "Stroop 3, Difference", "setting": "ME/CFS patients [3]; before vs after treatment", "value": 4.9}, {"measurement": "FF main effect of treatment", "setting": "ME/CFS patients [4]; 2-way ANOVA, OSU6162 vs placebo", "value": "None"}, {"measurement": "FF interaction between treatment with OSU6162 and antidepressant over time", "setting": "ME/CFS patients [4]; 3-way ANOVA week*treatm*antidepr, F3,180=6.785, p=0.0002", "value": "statistically significant 3-way interactions"}, {"measurement": "FF difference between OSU6162 treated and placebo treated patients", "setting": "ME/CFS patients [4]; patients not on antidepressant therapy, post hoc comparison", "value": "No difference"}, {"measurement": "FF change from week 0, difference OSU6162 vs placebo (95% confidence interval)", "setting": "ME/CFS patients [4]; patients on stable antidepressant therapy, after one week of treatment, F1,56=6.320, p=0.015, Bonferroni", "value": "−7.23 (−13.1 to −1.48)"}, {"measurement": "TMT B, max", "setting": "ME/CFS patients [5]; after treatment", "value": 145, "unit": "s"}, {"measurement": "TMT B, mean", "setting": "ME/CFS patients [5]; after treatment", "value": 61.2}, {"measurement": "TMT B, median", "setting": "ME/CFS patients [5]; after treatment", "value": 29}, {"measurement": "TMT B, min", "setting": "ME/CFS patients [5]; after treatment", "value": 31}, {"measurement": "TMT B difference between OSU6162 and placebo groups", "setting": "ME/CFS patients [5]; before and after treatment", "value": "No significant differences"}, {"measurement": "TMT B, max", "setting": "ME/CFS patients [5]; before treatment", "value": 134, "unit": "s"}, {"measurement": "TMT B, mean", "setting": "ME/CFS patients [5]; before treatment", "value": 71.7}, {"measurement": "TMT B, median", "setting": "ME/CFS patients [5]; before treatment", "value": 32}, {"measurement": "TMT B, min", "setting": "ME/CFS patients [5]; before treatment", "value": 44}, {"measurement": "TMT B, Difference", "setting": "ME/CFS patients [5]; before vs after treatment", "value": 10}]}]}
